System: rabbit bullous keratopathy model
Assay: Corneal endothelial cell injection therapy in rabbit bullous keratopathy model (Example 8)
Type: in vivo
Conditions: 14 days after cell injection; for expression of Na+/K+ ATPase: compared to control
Excerpt: Male Japanese white rabbits (Biotek Co., Ltd., 8 rabbits) were subjected to the following nictitating membrane excision. Each animal was set in a positioner, and the ocular surface was topically anesthetized by instillation of a topical anesthesia (Benoxil instillation 0.4%, Santen Pharmaceutical Co., Ltd.). Then, the root position of the nictitating membrane was pressed with a clamp for 30 sec, and compressing mark was cut with scissors. After excision of the nictitating membrane, the antibiotic ointment (tarivid eye ointment, Santen Pharmaceutical Co., Ltd.) was instilled to prevent infection.
Three days after nictitating membrane excision, phacoemulsification and aspiration surgery (PEA) was performed on the left eye. Under systemic anesthesia, 3 mm incision was formed in the corneoscleral limbus, crystalline lens was excised by a cataract surgery instrument (NIDEK Co., Ltd.), and the incision was sutured with a nylon thread (Mani Inc.). After phacoemulsification and aspiration surgery (PEA), the antibiotic ointment (tarivid eye ointment, Santen Pharmaceutical Co., Ltd.) was instilled to prevent infection. After 5 days from the PEA, the animals were systemically anesthetized by intramuscular administration of Ketalar muscular injection ([…], DAIICHI SANKYO COMPANY, LIMITED., 0.6 ml) and Celactal 2% Injection (Bayer, Ltd., 0.25 ml). Then, Benoxil instillation 0.4% (Santen Pharmaceutical Co., Ltd., one drop) was instilled and the eye was opened using a lid speculum. Thereafter, 1 mm incision was formed in the corneoscleral limbus, and corneal endothelial cells were scraped with a silicon surgical instrument to mechanically detach the cells. The detachment area was confirmed by trypan blue staining.
The corneal endothelial cells were mechanically scraped, the cultured corneal endothelial cells were collected with 0.05% trypsin-EDTA (Invitrogen, Cat. #25300-054) from the culture flask to give a cell suspension. Using Dulbecco's modified Eagle's medium (DMEM) (Invitrogen, 12320-032), the cultured rabbit corneal endothelial cells were suspended in 3 groups of 10 μM compound (I)/DMEM, 100 μM Y-27632/DMEM and DMEM, each at 1.0×10^6 cells/ml. The cell suspension of each group (200 μl (2.0×10^5 cells per one eye)) was injected with a 22 gauge needle to the anterior chamber from the corneoscleral limbus of the prepared rabbit bullous keratopathy model, and the rabbit was fixed looking downward such that the corneal endothelium face was on the upper side and the corneal epithelial face was on the lower side for 3 hours. The fixing with looking downward was performed with appropriate addition of anesthetics, paying sufficient attention to animal protection.
After 14 days from the cell injection, the treated eye was isolated, and a corneoscleral tissue was excised from the isolated eyeball. The obtained corneoscleral tissue was fixed with 4% para-formaldehyde/PBS for 10 min, and blocked overnight with PBS (Invitrogen, Cat. #14190-144) containing 1% BSA (SIGMA, Cat. #A7906-50G). Thereafter, the corneoscleral tissue was divided into two, and treated with Alexa-488 labeling phalloidin staining actin (Invitrogen, Cat. #Al2379), or anti-Na^+/K^+ ATPase antibody, which is a corneal endothelium marker (UP State, Cat. #05-369), for 2 hours. The anti-Na^+/K^+ ATPase antibody treatment group was further treated with Alexa-488 labeled secondary antibody (Invitrogen, Cat. #A-21202) for 1 hour. Thereafter, the cells were immersed in Vectashield (registered trade mark)-DAPI (Vector Laboratories, Cat. #H-1200) solution, and mounted using cover glass. The specimen was observed under a confocal laser microscope.
Taking the number of nuclei stained with DAPI as the corneal endothelial cell count, the DAPI stained images were analyzed by Image-Pro plus (Media Cybernetics, Inc.), and corneal endothelial cells were counted.

SMILES	fibrosis of injected cells (Phalloidin staining) (100 μM in cell suspension)	corneal endothelial cell count versus control group (100 μM)	expression of Na+/K+ ATPase (100 μM)	fibrosis of injected cells (Phalloidin staining) (10 μM in cell suspension)	corneal endothelial cell count versus 100 μM Y-27632 group (10 μM)	corneal endothelial cell count versus control group (10 μM)	expression of Na+/K+ ATPase (10 μM)
C[C@@H](N)[C@H]1CC[C@H](C(=O)Nc2ccncc2)CC1 [Y-27632, reference compound]	suppression of fibrosis of cells	tended to show higher cell counts than the control group	expression of Na^+/K^+ ATPase was found				
C[C@@H](N)c1ccc(C(=O)Nc2ccnc3[nH]ccc23)cc1.Cl [compound (I), (R)-(+)-N-(1H-pyrrolo[2,3-b]pyridin-4-yl)-4-(1-aminoethyl)benzamide monohydrochloride]				suppression of fibrosis of cells	higher than that of the 100 μM Y-27632 treatment group	tended to show higher cell counts than the control group	expression of Na^+/K^+ ATPase was found
